Experimental data taken from patent US20030207813A1, “Retroviral protease inhibitor combinations” (priority 1995, published 2003).
≈ marks a conversion by molar mass, not a printed value.

Legend:
HIV-1RF = test: CEM-T4 cell infection assay, reverse transcriptase readout, isolate RF; assay type: cell-based; conditions: Human immunodeficiency virus 1, CEM-T4, 168 h, Table 4, CEM-T4 cells, 7 days, read-out: Virus Isolate (EC50 ng/mL) RF
Description: (§1) RF represents the HIV-1 strain HIV-LRF and RFR represents a mixture of resistant strains obtained by selection of RF against the compound of Example 1. RFR comprises a mixture of viral strains having protease genotypes of G48V (14/40 clones); G48V, V82A (18/40 clones); G48V, L90S (2/40 clones); G48V, 154T, V82A (1/40 clones); G48M (1/40 clones); G48V, Q61H (1/40 clones); V13I, G48V (1/40 clones); G48V, F53L, V82A (1/40 clones); and G48V, V82A, C95Y (1/40 clones). RFR2 represents a mixture of resistant strains obtained by cloning RFR by three rounds of growth at limiting dilution. RFR2 comprises a mixture of viral strains having protease genotypes of G48V, V82A (13/15 clones); G17E, G48V, V82A (1/15 clones); and G48V, V82A, N37D, N88D (1/15 clones). RFRR represents a mixture of resistant strains obtained by selection of RF against the compounds of Examples 1 and 2 and then cloning by three rounds of growth at limiting dilution. RFRR comprises a mixture of viral strains having protease genotypes of G48V, 154T, L63P, V82A (7/9 clones); G48V, 154T, L63P, V82A, N88S (1/9 clones); and G48V, 154T, L63P, G73M, V82A (1/9 clones). SF162 represents the HIV-1 strain SF-162 and SF162R represents a mixture of resistant strains obtained by selection of SF162 against the compound of Example 1. SF162R comprises a mixture of viral strains having protease genotypes of M461, F53L, L63P, A71V, N88D (2/3 clones); and M46I, F53L, L63P, A71V, N88D, Q92R (1/3 clones). 89-959 represents the HIV-1 strain 89-959 and 89-959R represents a mixture of resistant strains obtained by selection of 89-959 against the compound of Example 2. 89-959R comprises a mixture of viral strains having protease genotypes of N88S (4/5 clones); and D25N, T26A, D30N, D37N, R41K, G73D, R87K, N88S (1/4 clones). NL4 represents the HIV-1 strain HIV-1NL4-3. NL4(G48V) represents a strain having a synthetically generated site-directed mutation in the protease from glycine to valine at amino acid position number 48. NL4(I84V) represents a strain having a synthetically generated site-directed mutation in the protease from isoleucine to valine at amino acid position number 84. NL4(R8Q,M46I) represents a strain having synthetically generated site-directed mutations in the protease from arginine to glutamine at amino acid position number 8 and methionine to isoleucine at amino acid position number 46. NL4(P22-538) represents a mixture of resistant strains obtained by selection of HIV-1NL4-3 against the compound of Example 10 after 22 passages comprising protease genotypes M46I, L63P, A71V, V82F, I84V (4/10); M46I, L63P, V82F, I84V (3/10); and M46I, A71V, V82F, I84V (3/10). NL4(P37-538) represents resistant strains obtained by selection of HIV-1NL4-3 against the compound of Example 10 after 37 passages comprising protease genotype M46I, L63P, A71V, 184A. NL4(538/524) represents resistant strains obtained by selection of NL4(P22-538) against the compound of Example 5 after 24 passages comprising protease genotype M46I, L63P, A71V, 184A. NL4(538/P7-AG) represents a mixture of resistant strains obtained by selection of NL4(P22-538) against the compound of Example 12 after 7 passages comprising protease genotypes M46I, L63P, A71V, 184A; and V321, V82I. NL4(538/P24-AG) represents resistant strains obtained by selection of NL4(P22-538) against the compound of Example 12 after 24 passages comprising protease genotype M46I, L63P, A71V, 184A. NLA(P19-003) represents resistant strains obtained by selection of HIV-1^NL4-3 against the compound of Example 9 after 19 passages comprising protease genotype R8K, M46I. NL4(P34-003) represents resistant strains obtained by selection of HIV-1^NL4-3 against the compound of Example 9 after 34 passages comprising protease genotype R8K, M46I, L63P, A71V, L90M.
(§2) The viral isolate resistance results summarized in Tables 4-6 were generated according to the following assay procedure or minor modifications thereof. Assays are performed in 96-well tissue culture plates. […]

[1] = tested on: RFR (resistant strains selected from RF against Example 1); test: CEM-T4 cell infection assay, reverse transcriptase readout, resistant isolate RFR; assay type: cell-based, HIV-1; conditions: Human immunodeficiency virus 1, CEM-T4, 168 h, Table 4, CEM-T4 cells, 7 days, read-out: Virus Isolate (EC50 ng/mL) RFR
Description: as §1, §2

NL4(P22-538) = test: Viral isolate resistance assay per Markowitz et al., NL4(P22-538); assay type: cell-based, HIV-1; conditions: Human immunodeficiency virus 1; Table 9; selected against Example 10, 22 passages; read-out: Virus Isolate (EC50 nM) NL4(P22-538)
Description: as §1, with “NLA(P19-003) represents resistant strains obtained by selection of HIV-1^NL4-3 against the compound of Example 9 after 19 passages comprising protease genotype R8K, M46I. NL4(P34-003) represents resistant strains obtained by selection of HIV-1^NL4-3 against the compound of Example 9 after 34 passages comprising protease genotype R8K, M46I, L63P, A71V, L90M.” left out

NL4(R8Q,M46I) = test: Viral isolate resistance assay per Markowitz et al., NL4(R8Q,M46I); assay type: cell-based, HIV-1; conditions: Human immunodeficiency virus 1, read-out: Virus Isolate (EC50 nM) NL4(R8O, M46I)
Description: (§3) RF represents the HIV-1 strain HIV-LRF and RFR represents a mixture of resistant strains obtained by selection of RF against the compound of Example 1. RFR comprises a mixture of viral strains having protease genotypes of G48V (14/40 clones); G48V, V82A (18/40 clones); G48V, L90S (2/40 clones); G48V, 154T, V82A (1/40 clones); G48M (1/40 clones); G48V, Q61H (1/40 clones); V13I, G48V (1/40 clones); G48V, F53L, V82A (1/40 clones); and G48V, V82A, C95Y (1/40 clones). RFR2 represents a mixture of resistant strains obtained by cloning RFR by three rounds of growth at limiting dilution. RFR2 comprises a mixture of viral strains having protease genotypes of G48V, V82A (13/15 clones); G17E, G48V, V82A (1/15 clones); and G48V, V82A, N37D, N88D (1/15 clones). RFRR represents a mixture of resistant strains obtained by selection of RF against the compounds of Examples 1 and 2 and then cloning by three rounds of growth at limiting dilution. RFRR comprises a mixture of viral strains having protease genotypes of G48V, 154T, L63P, V82A (7/9 clones); G48V, 154T, L63P, V82A, N88S (1/9 clones); and G48V, 154T, L63P, G73M, V82A (1/9 clones). SF162 represents the HIV-1 strain SF-162 and SF162R represents a mixture of resistant strains obtained by selection of SF162 against the compound of Example 1. SF162R comprises a mixture of viral strains having protease genotypes of M461, F53L, L63P, A71V, N88D (2/3 clones); and M46I, F53L, L63P, A71V, N88D, Q92R (1/3 clones). 89-959 represents the HIV-1 strain 89-959 and 89-959R represents a mixture of resistant strains obtained by selection of 89-959 against the compound of Example 2. 89-959R comprises a mixture of viral strains having protease genotypes of N88S (4/5 clones); and D25N, T26A, D30N, D37N, R41K, G73D, R87K, N88S (1/4 clones). NL4 represents the HIV-1 strain HIV-1NL4-3. NL4(G48V) represents a strain having a synthetically generated site-directed mutation in the protease from glycine to valine at amino acid position number 48. […]

NL4(P37-538) = test: Viral isolate resistance assay per Markowitz et al., NL4(P37-538); assay type: cell-based, HIV-1; conditions: Human immunodeficiency virus 1; Table 9; selected against Example 10, 37 passages; read-out: Virus Isolate (EC50 nM) NL4(P37-538)
Description: as §1
The viral isolate resistance results summarized in Tables 7-11 were generated according to the assay procedures described by Markowitz et al., Journal of Virology, vol. […]

NL4(P34-003) = test: Viral isolate resistance assay per Markowitz et al., NL4(P34-003); assay type: cell-based, HIV-1; conditions: Human immunodeficiency virus 1; Table 11; selected against Example 9, 34 passages
Description: as §3

NL4(G48V) = test: Viral isolate resistance assay per Markowitz et al., NL4(G48V); assay type: cell-based, HIV-1; conditions: Human immunodeficiency virus 1, Table 7
Description: (§4) RF represents the HIV-1 strain HIV-LRF and RFR represents a mixture of resistant strains obtained by selection of RF against the compound of Example 1. […] RFR2 represents a mixture of resistant strains obtained by cloning RFR by three rounds of growth at limiting dilution. […] RFRR represents a mixture of resistant strains obtained by selection of RF against the compounds of Examples 1 and 2 and then cloning by three rounds of growth at limiting dilution. […] SF162 represents the HIV-1 strain SF-162 and SF162R represents a mixture of resistant strains obtained by selection of SF162 against the compound of Example 1. […] 89-959 represents the HIV-1 strain 89-959 and 89-959R represents a mixture of resistant strains obtained by selection of 89-959 against the compound of Example 2. […] NL4 represents the HIV-1 strain HIV-1NL4-3. NL4(G48V) represents a strain having a synthetically generated site-directed mutation in the protease from glycine to valine at amino acid position number 48. NL4(I84V) represents a strain having a synthetically generated site-directed mutation in the protease from isoleucine to valine at amino acid position number 84. NL4(R8Q,M46I) represents a strain having synthetically generated site-directed mutations in the protease from arginine to glutamine at amino acid position number 8 and methionine to isoleucine at amino acid position number 46.

NL4(538/P7-AG) = test: Viral isolate resistance assay per Markowitz et al., NL4(538/P7-AG); assay type: cell-based, HIV-1; conditions: Human immunodeficiency virus 1; Table 10; NL4(P22-538) selected against Example 12, 7 passages
Description: as §1, with “NLA(P19-003) represents resistant strains obtained by selection of HIV-1^NL4-3 against the compound of Example 9 after 19 passages comprising protease genotype R8K, M46I. NL4(P34-003) represents resistant strains obtained by selection of HIV-1^NL4-3 against the compound of Example 9 after 34 passages comprising protease genotype R8K, M46I, L63P, A71V, L90M.” left out

NL4(538/P24-AG) = test: Viral isolate resistance assay per Markowitz et al., NL4(538/P24-AG); assay type: cell-based, HIV-1; conditions: Human immunodeficiency virus 1; Table 10; NL4(P22-538) selected against Example 12, 24 passages
Description: as §1, with “NLA(P19-003) represents resistant strains obtained by selection of HIV-1^NL4-3 against the compound of Example 9 after 19 passages comprising protease genotype R8K, M46I. NL4(P34-003) represents resistant strains obtained by selection of HIV-1^NL4-3 against the compound of Example 9 after 34 passages comprising protease genotype R8K, M46I, L63P, A71V, L90M.” left out

NL4(I84V) = test: Viral isolate resistance assay per Markowitz et al., NL4(I84V); assay type: cell-based, HIV-1; conditions: Human immunodeficiency virus 1, Table 7
Description: as §4

NL4(538/524) = test: Viral isolate resistance assay per Markowitz et al., NL4(538/524); assay type: cell-based, HIV-1; conditions: Human immunodeficiency virus 1; Table 10; NL4(P22-538) selected against Example 5, 24 passages
Description: as §1, with “NLA(P19-003) represents resistant strains obtained by selection of HIV-1^NL4-3 against the compound of Example 9 after 19 passages comprising protease genotype R8K, M46I. NL4(P34-003) represents resistant strains obtained by selection of HIV-1^NL4-3 against the compound of Example 9 after 34 passages comprising protease genotype R8K, M46I, L63P, A71V, L90M.” left out

HIV-1NL4-3 = test: microbe, parasite or virus in culture; assay type: cell-based; conditions: Human immunodeficiency virus 1, NL4
Description: as §4

NLA(P19-003) = test: Viral isolate resistance assay per Markowitz et al., NLA(P19-003); assay type: cell-based, HIV-1; conditions: Human immunodeficiency virus 1, read-out: Virus Isolate (EC50 nM) NLA(P19-003)
Description: as §3

Row | Compound | EC50 (HIV-1RF) | EC50 [1] | EC50 (NL4(P22-538)) | EC50 (NL4(R8Q,M46I)) | EC50 (NL4(P37-538)) | EC50 (NL4(P34-003)) | EC90 (NL4(G48V)) | EC50 (NL4(538/P7-AG)) | EC50 (NL4(538/P24-AG)) | EC90 (NL4(I84V)) | EC50 (NL4(538/524)) | EC90 (HIV-1NL4-3; Table 7, EC90, read-out: Virus Isolate (EC90 nM) NL4) | EC50 (HIV-1NL4-3; Table 8, read-out: Virus Isolate (EC50 nM) NL4) | EC50 (NLA(P19-003))
1 | COc1ccc(S(=O)(=O)N(CC(C)C)C[C@@H](O)[C@H](Cc2ccccc2)NC(=O)[C@H](C)CS(C)(=O)=O)cc1 (relative stereo) [Example 4, [1S-[1R*(R*),2S*]]-N-[2-hydroxy-3-[N^1-(2-methylpropyl)-N-(4-methoxyphenylsulfonyl)amino]-1-(phenylmethyl)propyl]-2-methyl-3-(methylsulfonyl)propanamide] | 10 ng/mL (≈ 18 nM) | 0.4 ng/mL (≈ 0.721 nM) | – | – | – | – | – | – | – | – | – | – | – | –
2 | COc1ccc(S(=O)(=O)N(CC(C)C)C[C@@H](O)[C@H](Cc2ccccc2)NC(=O)OCc2cncnc2)cc1 [Example 3, [2R-hydroxy-3-[[(4-methoxyphenyl)sulfonyl](2-methylpropyl)amino]-1S-(phenylmethyl)propyl]carbamic acid 5-pyrimidylmethyl ester] | 5 ng/mL (≈ 9.21 nM) | 2 ng/mL (≈ 3.69 nM) | – | – | – | – | – | – | – | – | – | – | – | –
3 | CC(C)c1nc(CN(C)C(=O)N[C@H](C(=O)N[C@@H](Cc2ccccc2)C[C@H](O)[C@H](Cc2ccccc2)NC(=O)OCc2cncs2)C(C)C)cs1 [Example 10] | – | – | 1600 nM | 240 nM | 6400 nM | 400 nM | 160 nM | 6400 nM | 6400 nM | 800 nM | 6400 nM | 80 nM | 80 nM | 400 nM
